Measurements: patent US12304932B2, “PACAP stabilized peptide” (SENJU PHARMACEUTICAL CO., LTD., priority 2017, dated 2025)
Numbered stars: 1 amine (or outer) side, 2 acyl side, 3 side chain; on linkers, the order of the positions; unused ones are H or OH. Square brackets hold non-standard residues; d marks the D form. Peptide text beside a SMILES is read from it. Ala(1H-tetrazol-5-yl) = N[C@@H](Cc1nnn[nH]1)C(=O)O; X1 = O=C([C@H](CCc1nnn[nH]1)N[*:1])[*:2]

Assay: Peptide stability tests 2 and 3: Tris buffer pH 7.0, stored at 60° C., HPLC conditions 2
Type: physicochemical
Conditions: Tris buffer pH 7.0, 60° C.; for survival rate after correction for water, 60° C., 1-week storage / survival rate after correction for water, 60° C., 2-week storage / survival rate after correction for water, 60° C., 2-week storage (Table 7-2): 100 μM peptide; for survival rate after correction for water, 60° C., 2-week storage / survival rate after correction for water, 60° C., 2-week storage (Table 7-2): 2 weeks
Experimental: (§1) Peptides 1, 2 and 6 to 9 synthesized in Example 2 were weighed and dissolved in Tris buffer (pH 7.0) to prepare 1.0 mM peptide solutions. The solutions were filtered with a Chromatdisk (product of Merck Millipore, Millex-GV, 0.22 μm). Each filtrate was diluted to 100 μM with Tris buffer (pH 7.0) and dispensed into a tube (Protein LoBind Tube by Eppendorf Co.). The prepared peptide solutions were incubated for 1 week or 2 weeks in a 60° C. thermostatic bath to obtain stored samples. A simultaneously prepared sample among the peptide solutions that was not stored was used as a standard sample (initial sample). The standard sample and the stored samples were stored at −30° C. until sample analysis.
Each stored sample was measured under the following HPLC analysis conditions 2, and the survival rate after correction for water for each peptide among the stored samples was calculated in the same manner as Example 3.
Column: XSelect CSH C18 by Waters Co., 5 μm, 4.6×250 mm
Guard column: XSelect CSH C18 by Waters. Co., 5 μm, 4.6×20 mm Guard Cartridge
Detection wavelength: 220 nm
Mobile phase A: 0.1% formic acid in water
Mobile phase B: 0.1% formic acid in acetonitrile
Measuring time: 20 minutes
Measuring sample injection rate: 50 μL
Column temperature: 40° C.
Mobile phase delivery: The mixing ratio of mobile phase A and mobile phase B was varied as shown in Table 5 for linear concentration gradient control.
as §1, with “Peptides 12 to 25, 27” for “Peptides 1, 2”, “and 28” for “and 6 to 9”, “for one” for “for 1”
The survival rate after correction for water for each peptide among the stored samples was calculated in the same manner as Example 4, and the results are shown in Table 7.
as §1, with “29” for “1, 2 and 6”, “34” for “9”, “for” for “for 1 week or”
The survival rate after correction for water for each peptide among the stored samples was calculated in the same manner as Example 4, and the results are shown in Table 7-2.

Row | stability in aqueous solution, in words | Structure (SMILES) | survival rate after correction for water, 60° C., 1-week storage | survival rate after correction for water, 60° C., 2-week storage | survival rate after correction for water, 60° C., 2-week storage (Table 7-2)
1 |  | CC[C@H](C)[C@H](NC(=O)CNC(=O)[C@H](Cc1nnn[nH]1)NC(=O)[C@H](CO)NC(=O)[C@H](Cc1c[nH]cn1)NC(C)=O)C(=O)N[C@@H](Cc1ccccc1)C(=O)N[C@H](C(=O)N[C@@H](Cc1nnn[nH]1)C(=O)N[C@@H](CO)C(=O)N[C@@H](Cc1ccc(O)cc1)C(=O)N[C@@H](CO)C(=O)N[C@@H](CCCNC(=N)N)C(=O)N[C@@H](Cc1ccc(O)cc1)C(=O)N[C@@H](CCCNC(=N)N)C(=O)N[C@@H](CCCCN)C(=O)N[C@@H](CCc1nnn[nH]1)C(=O)N[C@@H](CC(C)C)C(=O)N[C@@H](C)C(=O)N[C@H](C(=O)N[C@@H](CCCCN)C(=O)N[C@@H](CCCCN)C(=O)N[C@@H](Cc1ccc(O)cc1)C(=O)N[C@@H](CC(C)C)C(=O)N[C@@H](C)C(=O)N[C@@H](C)C(=O)N[C@H](C(=O)N[C@@H](CC(C)C)C(N)=O)C(C)C)C(C)C)[C@@H](C)O [Peptide 13] (Ac-HS[Ala(1H-tetrazol-5-yl)]GIFT[Ala(1H-tetrazol-5-yl)]SYSRYRK[X1]LAVKKYLAAVL-NH2) | 97.4% | 95.4% | 
2 | drastically increased stability | CC[C@H](C)[C@H](NC(=O)CNC(=O)[C@H](Cc1nnn[nH]1)NC(=O)[C@H](CO)NC(=O)[C@@H](N)Cc1c[nH]cn1)C(=O)N[C@@H](Cc1ccccc1)C(=O)N[C@H](C(=O)N[C@@H](Cc1nnn[nH]1)C(=O)N[C@@H](CO)C(=O)N[C@@H](Cc1ccc(O)cc1)C(=O)N[C@@H](CO)C(=O)N[C@@H](CCCNC(=N)N)C(=O)N[C@@H](Cc1ccc(O)cc1)C(=O)N[C@@H](CCCNC(=N)N)C(=O)N[C@@H](CCCCN)C(=O)N[C@@H](CCC(N)=O)C(=O)N[C@@H](CC(C)C)C(=O)N[C@@H](C)C(=O)N[C@H](C(=O)N[C@@H](CCCCN)C(=O)N[C@@H](CCCCN)C(=O)N[C@@H](Cc1ccc(O)cc1)C(=O)N[C@@H](CC(C)C)C(=O)N[C@@H](C)C(=O)N[C@@H](C)C(=O)N[C@H](C(=O)N[C@@H](CC(C)C)C(N)=O)C(C)C)C(C)C)[C@@H](C)O [Peptide 7] (H-HS[Ala(1H-tetrazol-5-yl)]GIFT[Ala(1H-tetrazol-5-yl)]SYSRYRKQLAVKKYLAAVL-NH2) | 91.7% | 84.8% | 
3 |  | CC[C@H](C)[C@H](NC(=O)[C@H](C)NC(=O)[C@H](Cc1nnn[nH]1)NC(=O)[C@H](CO)NC(=O)[C@H](Cc1c[nH]cn1)NC(C)=O)C(=O)N[C@@H](Cc1ccccc1)C(=O)N[C@H](C(=O)N[C@@H](Cc1nnn[nH]1)C(=O)N[C@@H](CO)C(=O)N[C@@H](Cc1ccc(O)cc1)C(=O)N[C@@H](CO)C(=O)N[C@@H](CCCNC(=N)N)C(=O)N[C@@H](Cc1ccc(O)cc1)C(=O)N[C@@H](CCCNC(=N)N)C(=O)N[C@@H](CCCCN)C(=O)N[C@@H](C)C(=O)N[C@@H](C)C(=O)N[C@@H](C)C(=O)N[C@H](C(=O)N[C@@H](CCCCN)C(=O)N[C@@H](CCCCN)C(=O)N[C@@H](Cc1ccc(O)cc1)C(=O)N[C@@H](CC(C)C)C(=O)N[C@@H](C)C(=O)N[C@@H](C)C(=O)N[C@H](C(=O)N[C@@H](CC(C)C)C(N)=O)C(C)C)C(C)C)[C@@H](C)O [Peptide 34] (Ac-HS[Ala(1H-tetrazol-5-yl)]AIFT[Ala(1H-tetrazol-5-yl)]SYSRYRKAAAVKKYLAAVL-NH2) |  |  | 96.9%
4 |  | CC[C@H](C)[C@H](NC(=O)[C@H](C)NC(=O)[C@H](Cc1nnn[nH]1)NC(=O)[C@H](C)NC(=O)[C@H](Cc1c[nH]cn1)NC(C)=O)C(=O)N[C@@H](Cc1ccccc1)C(=O)N[C@H](C(=O)N[C@@H](Cc1nnn[nH]1)C(=O)N[C@@H](CO)C(=O)N[C@@H](Cc1ccc(O)cc1)C(=O)N[C@@H](CO)C(=O)N[C@@H](CCCNC(=N)N)C(=O)N[C@@H](Cc1ccc(O)cc1)C(=O)N[C@@H](CCCNC(=N)N)C(=O)N[C@@H](CCCCN)C(=O)N[C@@H](CCC(N)=O)C(=O)N[C@@H](C)C(=O)N[C@@H](C)C(=O)N[C@H](C(=O)N[C@@H](CCCCN)C(=O)N[C@@H](CCCCN)C(=O)N[C@@H](Cc1ccc(O)cc1)C(=O)N[C@@H](CC(C)C)C(=O)N[C@@H](C)C(=O)N[C@@H](C)C(=O)N[C@H](C(=O)N[C@@H](CC(C)C)C(N)=O)C(C)C)C(C)C)[C@@H](C)O [Peptide 33] (Ac-HA[Ala(1H-tetrazol-5-yl)]AIFT[Ala(1H-tetrazol-5-yl)]SYSRYRKQAAVKKYLAAVL-NH2) |  |  | 85.3%
5 |  | CC[C@H](C)[C@H](NC(=O)CNC(=O)[C@H](Cc1nnn[nH]1)NC(=O)[C@H](CO)NC(=O)[C@H](Cc1c[nH]cn1)NC(C)=O)C(=O)N[C@@H](Cc1ccccc1)C(=O)N[C@H](C(=O)N[C@@H](Cc1nnn[nH]1)C(=O)N[C@@H](CO)C(=O)N[C@@H](Cc1ccc(O)cc1)C(=O)N[C@@H](CO)C(=O)N[C@@H](CCCNC(=N)N)C(=O)N[C@@H](Cc1ccc(O)cc1)C(=O)N[C@@H](CCCNC(=N)N)C(=O)N[C@@H](CCCCN)C(=O)N[C@@H](CCC(N)=O)C(=O)N[C@@H](CC(C)C)C(=O)N[C@@H](C)C(=O)N[C@@H](C)C(=O)N[C@@H](CCCCN)C(=O)N[C@@H](CCCCN)C(=O)N[C@@H](Cc1ccc(O)cc1)C(=O)N[C@@H](CC(C)C)C(=O)N[C@@H](C)C(=O)N[C@@H](C)C(=O)N[C@H](C(=O)N[C@@H](CC(C)C)C(N)=O)C(C)C)[C@@H](C)O [Peptide 19] (Ac-HS[Ala(1H-tetrazol-5-yl)]GIFT[Ala(1H-tetrazol-5-yl)]SYSRYRKQLAAKKYLAAVL-NH2) | 95.8% | 92.7% | 
6 | only equivalent stability | CC[C@H](C)[C@H](NC(=O)CNC(=O)[C@H](CC(=O)O)NC(=O)[C@H](CO)NC(=O)[C@H](Cc1cnc[nH]1)NC(C)=O)C(=O)N[C@@H](Cc1ccccc1)C(=O)N[C@H](C(=O)N[C@@H](CC(=O)O)C(=O)N[C@@H](CO)C(=O)N[C@@H](Cc1ccc(O)cc1)C(=O)N[C@@H](CO)C(=O)N[C@@H](CCCNC(=N)N)C(=O)N[C@@H](Cc1ccc(O)cc1)C(=O)N[C@@H](CCCNC(=N)N)C(=O)N[C@@H](CCCCN)C(=O)N[C@@H](CCC(N)=O)C(=O)N[C@@H](CCSC)C(=O)N[C@@H](C)C(=O)N[C@H](C(=O)N[C@@H](CCCCN)C(=O)N[C@@H](CCCCN)C(=O)N[C@@H](Cc1ccc(O)cc1)C(=O)N[C@@H](CC(C)C)C(=O)N[C@@H](C)C(=O)N[C@@H](C)C(=O)N[C@H](C(=O)N[C@@H](CC(C)C)C(N)=O)C(C)C)C(C)C)[C@@H](C)O [Peptide 2, reference compound] | 28.7% | 17.2% | 
7 |  | CC[C@H](C)[C@H](NC(=O)CNC(=O)[C@H](Cc1nnn[nH]1)NC(=O)[C@H](CO)NC(=O)[C@H](Cc1c[nH]cn1)NC(C)=O)C(=O)N[C@@H](Cc1ccccc1)C(=O)N[C@H](C(=O)N[C@@H](Cc1nnn[nH]1)C(=O)N[C@@H](CO)C(=O)N[C@@H](Cc1ccc(O)cc1)C(=O)N[C@@H](C)C(=O)N[C@@H](CCCNC(=N)N)C(=O)N[C@@H](Cc1ccc(O)cc1)C(=O)N[C@@H](CCCNC(=N)N)C(=O)N[C@@H](CCCCN)C(=O)N[C@@H](CCC(N)=O)C(=O)N[C@@H](CC(C)C)C(=O)N[C@@H](C)C(=O)N[C@H](C(=O)N[C@@H](CCCCN)C(=O)N[C@@H](CCCCN)C(=O)N[C@@H](Cc1ccc(O)cc1)C(=O)N[C@@H](CC(C)C)C(=O)N[C@@H](C)C(=O)N[C@@H](C)C(=O)N[C@H](C(=O)N[C@@H](CC(C)C)C(N)=O)C(C)C)C(C)C)[C@@H](C)O [Peptide 16] (Ac-HS[Ala(1H-tetrazol-5-yl)]GIFT[Ala(1H-tetrazol-5-yl)]SYARYRKQLAVKKYLAAVL-NH2) | 98.1% | 93.5% | 
